Experimental data reported in US11072628B2, “Nucleoside analogues for the treatment of parasitic infections” (UNIVERSITEIT GENT, priority 2017, dated 2021).
Where two headings read alike, the source gives them in different places.

Experiments:
[1] = tested on: MRC-5 fibroblasts; assay: in vitro
Experimental: (§1) Cytotoxicity was assayed against MRC-5 fibroblasts. Results are depicted in Tables 4 and 5.

[2] = tested on: T. b. rhodesiense STIB-900; assay: In vitro drug susceptibility, T. b. rhodesiense STIB-900 (resazurin); type: cell-based, Trypanosoma brucei rhodesiense
Experimental: (§2) All trypanosome strains were cultured in the standard HMI-9 medium supplemented with 10% fetal bovine serum (FBS) at 37° C. in a 5% CO2 atmosphere.

[3] = tested on: T. brucei Squib 427; assay: In vitro drug susceptibility, T. brucei Squib 427 (resazurin); type: cell-based, Trypanosoma brucei brucei
Experimental: as §2

[4] = tested on: T. cruzi Tulahuen CL2 β galactosidase strain; assay: T. cruzi Tulahuen CL2 β galactosidase strain on MRC-5SV2 cells (CPRG); type: cell-based, Trypanosoma cruzi
Experimental: All cultures and assays were conducted at 37° C./5% CO2. […] The results were expressed as % reduction in parasite burdens compared to control wells from which an EC50 was calculated.

[5] = Cytotoxicity against MRC-5 fibroblasts; details: human, MRC-5 fibroblasts, MRC-5 EC50, Table 2; cytotoxicity
Experimental: as §1

[6] = Table 1, average of 2-4 independent determinations, read-out: T. brucei rhod. EC50
[7] = Table 1, average of 2-4 independent determinations, read-out: T. brucei brucei EC50
[8] = Table 2, average of 2-3 independent replicates
[9] = Trypanosoma cruzi, TULAHUEN, MRC-5 SV2, Table 2, average of 2-3 independent replicates

| Compound | EC50 [1] | EC50 [2, 6] | EC50 [3, 7] | EC50 [4, 8] | EC50 [5] | melting point | EC50 [4, 9] | EC50 [4] | EC50 ([2]; Table 4, average of 2-6 independent determinations, read-out: T.b. rhod. EC50) | EC50 ([3]; Table 4, average of 2-6 independent determinations, read-out: T.b. brucei EC50) | EC50 ([4]; Table 5, average of 2-4 independent replicates) |
| --- | --- | --- | --- | --- | --- | --- | --- | --- | --- | --- | --- |
| CO[C@@H]1C[C@@H](CO)O[C@H]1n1cc(Br)c2c(N)ncnc21 [FH9616, 4-amino-5-bromo-N7-(2′-O-methyl-3′-deoxy-β-D-ribofuranosyl)-pyrrolo[2,3-d]pyrimidine] | > 64 µM | 25.4 µM | 32.5 µM | > 64 µM | – | – | – | – | – | – | – |
| Nc1ncnc2c1c(-c1ccc(F)c(F)c1)cn2[C@@H]1O[C@H](CO)C[C@H]1O [FH10682, 4-amino-5-(3,4-difluorophenyl)-N7-(3′-deoxy-β-D-ribofuranosyl)-pyrrolo[2,3-d]pyrimidine] | – | – | – | – | > 64 µM | 218 °C | 0.33 µM | – | – | – | – |
| Nc1ncnc2c1c(Br)cn2[C@@H]1OC(CO)(CO)C[C@H]1O [FH9561, 4-amino-5-bromo-N7-(3′-deoxy-4′-hydroxymethyl-β-D-ribofuranosyl)-pyrrolo[2,3-d]pyrimidine] | > 64 µM | 5.6 µM | 26.8 µM | > 64 µM | – | – | – | – | – | – | – |
| Nc1ncnc2c1c(-c1ccc(F)c(Cl)c1)cn2[C@@H]1O[C@H](CO)C[C@H]1O [FH10681, 4-amino-5-(3-chloro-4-fluorophenyl)-N7-(3′-deoxy-β-D-ribofuranosyl)-pyrrolo[2,3-d]pyrimidine] | – | – | – | – | 45.5 µM | 178 °C | 0.3 µM | – | – | – | – |
| Nc1ncnc2c1c(-c1ccc(Cl)c(F)c1)cn2[C@@H]1O[C@H](CO)C[C@H]1O [FH10683, 4-amino-5-(3-fluoro-4-chlorophenyl)-N7-(3′-deoxy-β-D-ribofuranosyl)-pyrrolo[2,3-d]pyrimidine] | – | – | – | – | 18.6 µM | 206 °C | 0.07 µM | – | – | – | – |
| CCSC[C@@H]1C[C@@H](O)[C@H](n2cc(Br)c3c(N)ncnc32)O1 [FH9590, 4-amino-5-bromo-N7-(3′-deoxy-5′-thio-ethyl-β-D-ribofuranosyl)-pyrrolo[2,3-d]pyrimidine] | 25.8 µM | 10.6 µM | 32.9 µM | 35.7 µM | – | – | – | – | – | – | – |
| Nc1ncnc2c1cc(Br)n2[C@@H]1O[C@H](CO)C[C@H]1O [FH10622, 4-amino-6-bromo-N7-(3′-deoxy-β-D-ribfuranosyl)-pyrrolo[2,3-d]pyrimidine] | > 64 µM | 1.02 µM | 4.97 µM | > 64 µM | – | – | – | – | – | – | – |
| COc1ccc(-c2cn([C@@H]3O[C@H](CO)C[C@H]3O)c3ncnc(N)c23)cc1Cl [FH10645] | > 64 µM | 2.51 µM | 7.13 µM | 3.3 µM | – | – | – | – | – | – | – |
| Nc1ccnc2c1ccn2[C@@H]1O[C@H](CO)C[C@H]1O [FH9550, 4-amino-N1-(3′-deoxy-β-D-ribofuranosyl)-pyrrolo[2,3-b]pyridine] | > 64 µM | 30.8 µM | > 64 µM | – | – | – | – | > 64 µM | – | – | – |
| C[C@@H]1C[C@@H](O)[C@H](n2cc(Br)c3c(N)ncnc32)O1 [FH8492, 4-amino-5-bromo-N7-(3′-5′-dideoxy-β-D-ribofuranosyl)-pyrrolo[2,3-d]pyrimidine] | 10.2 µM | 20.1 µM | 33.5 µM | 12 µM | – | – | – | – | – | – | – |
| Nc1ncnc2c1c(-c1ccc(F)cc1)cn2[C@@H]1O[C@H](CO)C[C@H]1O [FH10680, 4-amino-5-(4-fluorophenyl)-N7-(3′-deoxy-β-D-ribofuranosyl)-pyrrolo[2,3-d]pyrimidine] | – | – | – | – | > 64 µM | 186 to 187 °C | 0.64 µM | – | – | – | – |
| OC[C@@H]1C[C@@H](O)[C@H](n2cc(Br)c3c(Cl)ccnc32)O1 [FH9540, 3-bromo-4-chloro-N1-(3′-deoxy-β-D-ribofuranosyl)-pyrrolo[2,3-b]pyridine] | 27.2 µM | 28.9 µM | 14.8 µM | – | – | – | – | 15 µM | – | – | – |
| CSc1ncnc2c1c(Br)cn2[C@@H]1O[C@H](CO)C[C@H]1O [FH8510, 4-thiomethyl-5-bromo-N7-(3′-deoxy-β-D-ribofuranosyl)-pyrrolo[2,3-d]pyrimidine] | 0.29 µM | 4.34 µM | 1.68 µM | 35.8 µM | – | – | – | – | – | – | – |
| COC[C@@H]1C[C@@H](O)[C@H](n2cc(Br)c3c(N)ncnc32)O1 [FH10626, 4-amino-5-bromo-N7-(3′-deoxy-5′-O-methyl-β-D-ribofuranosyl)-pyrrolo[2,3-d]pyrimidine] | 22.7 µM | 18.7 µM | 32 µM | 50.4 µM | – | – | – | – | – | – | – |
| Nc1ncnc2c1c(Cl)cn2[C@@H]1O[C@H](CO)[C@@H](O)[C@H]1O [FH3169] | 33.4 µM | – | – | – | – | – | – | – | 0.12 µM | 1.33 µM | 0.52 µM |
| Nc1ncnc2c1c(-c1ccccn1)cn2[C@@H]1O[C@H](CO)C[C@H]1O [FH8502, 4-amino-5-(pyrid-2-yl)-N7-(3′-deoxy-β-D-ribfuranosyl)-pyrrolo[2,3-d]pyrimidine] | 33.7 µM | 37.3 µM | 7.6 µM | 40.8 µM | – | – | – | – | – | – | – |

| Compound | EC50 [1] | EC50 [2, 6] | EC50 [3, 7] | EC50 [4, 8] | EC50 [5] | melting point | EC50 [4, 9] | EC50 [4] | EC50 ([2]; Table 4, average of 2-6 independent determinations, read-out: T.b. rhod. EC50) | EC50 ([3]; Table 4, average of 2-6 independent determinations, read-out: T.b. brucei EC50) | EC50 ([4]; Table 5, average of 2-4 independent replicates) |
| --- | --- | --- | --- | --- | --- | --- | --- | --- | --- | --- | --- |
| Cc1cccc(-c2cn([C@@H]3O[C@H](CO)C[C@H]3O)c3ncnc(N)c23)c1 [FH10639, 4-amino-5-(3-methylphenyl)-N7-(3′-deoxy-β-D-ribofuranosyl)-pyrrolo[2,3-d]pyrimidine] | > 64 µM | 11.2 µM | 30.5 µM | 5.15 µM | – | – | – | – | – | – | – |
| Nc1ncnc2c1c(SC(F)(F)F)cn2[C@@H]1O[C@H](CO)C[C@H]1O [FH9605, 4-amino-5-trifluoromethylthio-N7-(3′-deoxy-β-D-ribofuranosyl)-pyrrolo[2,3-d]pyrimidine] | 18.6 µM | 21 µM | 27.2 µM | 26 µM | – | – | – | – | – | – | – |
| CSC[C@@H]1C[C@@H](O)[C@H](n2cc(Br)c3c(N)ncnc32)O1 [FH9527, 4-amino-5-bromo-N7-(3′-deoxy-5′-thiomethyl-β-D-ribofuranosyl)-pyrrolo[2,3-d]pyrimidine] | 15.3 µM | 22.3 µM | 32.5 µM | 25 µM | – | – | – | – | – | – | – |
| OC[C@@H]1C[C@@H](O)[C@H](n2ccc3c(Cl)ccnc32)O1 [FH9541, 4-chloro-N1-(3′-deoxy-β-D-ribofuranosyl)-pyrrolo[2,3-b]pyridine] | > 64 µM | 7.97 µM | 31.2 µM | – | – | – | – | > 64 µM | – | – | – |
| 4-amino-5-bromo-N7-(2′,3′-anhydro-2′,3′-dideoxy-β-D-ribofuranosyl)-pyrrolo[2,3-d]pyrimidine [FH10632] | 45.6 µM | 59.9 µM | > 64 µM | > 64 µM | – | – | – | – | – | – | – |
| Nc1ncnc2c1c(-c1ccc3ccccc3c1)cn2[C@@H]1O[C@H](CO)C[C@H]1O [FH9575, 4-amino-5-(2-naftyl)-N7-(3′-deoxy-β-D-ribfuranosyl)-pyrrolo[2,3-d]pyrimidine] | 5 µM | 2 µM | 18.6 µM | 0.72 µM | – | – | – | – | – | – | – |
| Nc1ncnc2c1c(-c1ccccc1)cn2[C@@H]1O[C@H](CO)C[C@H]1O [FH8480, 4-amino-5-phenyl-N7-(3′-deoxy-β-D-ribofuranosyl)-pyrrolo[2,3-d]pyrimidine] | 61.8 µM | 1.2 µM | 7.9 µM | 2.57 µM | – | – | – | – | – | – | – |
| Nc1ncnc2c1ccn2[C@@H]1O[C@H](COS(N)(=O)=O)C[C@H]1O [FH9608, 4-amino-N7-(3′-deoxy-5′-O-sulfamoyl-β-D-ribofuranosyl)-pyrrolo[2,3-d]pyrimidine] | 5.09 µM | 0.87 µM | 4.6 µM | 9.91 µM | – | – | – | – | – | – | – |
| Nc1ccnc2c1c(Br)cn2[C@@H]1O[C@H](CO)C[C@H]1O [FH9549, 3-bromo-4-amino-N1-(3′-deoxy-β-D-ribofuranosyl)-pyrrolo[2,3-b]pyridine] | > 64 µM | > 64 µM | 35.2 µM | – | – | – | – | > 64 µM | – | – | – |
| O=c1[nH]cnc2c1c(Br)cn2[C@@H]1O[C@H](CO)C[C@H]1O [FH8500, 4-oxo-5-bromo-N7-(3′-deoxy-β-D-ribfuranosyl)-pyrrolo[2,3-d]pyrimidine] | > 64 µM | 2.26 µM | 8.09 µM | > 64 µM | – | – | – | – | – | – | – |
| CC(C)c1ccc(-c2cn([C@@H]3O[C@H](CO)C[C@H]3O)c3ncnc(N)c23)cc1 [FH9574, 4-amino-5-(4-isopropylphenyl)-N7-(3′-deoxy-β-D-ribofuranosyl)-pyrrolo[2,3-d]pyrimidine] | 24.9 µM | 55.9 µM | > 64 µM | 8.5 µM | – | – | – | – | – | – | – |
| CNc1ncnc2c1c(Br)cn2[C@@H]1O[C@H](CO)C[C@H]1O [FH8516, 4-methylamino-5-bromo-N7-(3′-deoxy-β-D-ribofuranosyl)-pyrrolo[2,3-d]pyrimidine] | > 64 µM | 8.25 µM | 6.21 µM | > 64 µM | – | – | – | – | – | – | – |
| Cc1ccc(-c2cn([C@@H]3O[C@H](CO)C[C@H]3O)c3ncnc(N)c23)cc1C [FH10653, 4-amino-5-(3,4-dimethylphenyl)-N7-(3′-deoxy-β-D-ribofuranosyl)-pyrrolo[2,3-d]pyrimidine] | 22.3 µM | 2.17 µM | 8.81 µM | 1.37 µM | – | – | – | – | – | – | – |
| Nc1ncnc2c1c(-c1cccc(C(F)(F)F)c1)cn2[C@@H]1O[C@H](CO)C[C@H]1O [FH10640, 4-amino-5-(3-trifluoromethylphenyl)-N7-(3′-deoxy-β-D-ribofuranosyl)-pyrrolo[2,3-d]pyrimidine] | 49.6 µM | 1.77 µM | 8.6 µM | 11.2 µM | – | – | – | – | – | – | – |
| COc1ncnc2c1c(Br)cn2[C@@H]1O[C@H](CO)C[C@H]1O [FH8497, 4-methoxy-5-bromo-N7-(3′-deoxy-β-D-ribofuranosyl)-pyrrolo[2,3-d]pyrimidine] | 2.7 µM | 3.7 µM | 2.62 µM | > 64 µM | – | – | – | – | – | – | – |
